Assay results reported in PubChem BioAssay AID2060506 (Molecular Pharmacology Branch, DTP, NCI, 2025).
Values joined by “and” are separate entries in the source; they are usually repeats but may differ in a detail not shown here. Equal values may be shown once. Blank lines part the entries; values can stand above or below the compound they belong to.

System: 598228-144-R-J1-PDC complex spheroid viability
Assay: Anticancer human tumor 598228-144-R-J1-PDC patient-derived serous endometrial adenocarcinoma cell line growth inhibition [GQUAD]
Conditions: for viability, T/C: stronger effect = lower value
Excerpt: DNA G-quadruplex Stabilizer Agents in Combinations in Complex Spheroids
A high-throughput screen of multi-cell type tumor spheroids was designed to identify active combinations of DNA G-quadruplex stabilizer agents and targeted small molecules. Complex spheroids include a stromal component modeled by human endothelial cells (HUVEC) and fibroblasts modeled by human mesenchymal stem cells (MSCs). The concentration ranges selected for each drug and investigational agent were based upon clinically achievable concentrations if the clinical Cmax of the agent was known.
Compounds. The drugs and investigational agents: pidnarulex (CX-5461; NSC782164), APTO-253 (NSC789042), BRACO-19 (NSC847499), peposertib (NSC802822), ceralasertib (NSC780249), elimusertib (NSC800525), camonsertib (NSC841442), AZD-1390 (NSC803789), olaparib (NSC753686), talazoparib (NSC767125), ART-558 (NSC835418), sotorasib (NSC818433), MRTX-1133 (NSC836407), SN-38 (NSC673596), topotecan (NSC609699), etoposide (NSC141540), doxorubicin (NSC123127), gemcitabine (NSC613327), 5-fluorouracil (NSC19893), paclitaxel (NSC125973), vemurafenib (NSC761431), panobinostat (NSC761190), R-306465 (JNJ-16241199; NSC773264), adavosertib (NSC754352), TP-3654 (NSC805149), carboplatin (NSC241240), KSQ-4279 (NSC840948), and staurosporine (NSC755774) were obtained from the National Cancer Institute (NCI) Developmental Therapeutics Program Chemical Repository (34). The FDA-approved anticancer drug set is available from the NCI Developmental Therapeutics Program. […] The stock solutions were prepared in dimethyl sulfoxide (DMSO, Sigma-Aldrich, St. Louis, MO, cat. D2650) at 800-fold the tested concentration and stored at -70 degrees C prior to their use. All drugs and investigational agents were tested over a range starting from a high concentration at or near the clinical Cmax and decreasing in half-log increments. If the clinical Cmax for an agent had not been determined, the highest concentration tested was 10 microM.
2.3 Cell Culture. All cells were maintained in an incubator at 37 degrees C and 5% CO2 with 95% humidity. The PDC lines were cultured according to standard operating procedures established by the NCI PDMR. All PDCs were thawed and cultured in Matrigel-coated flasks prepared with a working solution of 1X Ham's F-12 nutrient mix, without supplementation (Invitrogen, cat. 11765054), 100 U/mL penicillin-streptomycin (Invitrogen, cat. 15140122), and 2.5% Matrigel (Corning Inc., cat. 354248) for the first three passages. The 857933-349-R-J2-PDC line was cultured in 6C/Colon 1B media, which includes advanced DMEM/F-12 (Thermo Fisher Scientific, cat. 12634028), 10 mM HEPES (Thermo Fisher Scientific, cat. 15630080), 1X GlutaMAX supplement (Thermo Fisher Scientific, cat. 35050061), 0.1 mg/mL primocin (InvivoGen, cat. ant-pm-2), 10% defined fetal bovine serum, heat inactivated (HyClone Laboratories Inc., cat. SH30070.03HI), 50% L-WRN conditioned media (ATCC, cat. CRL-3276), 1.25 mM N-Acetyl-L-cysteine (Sigma-Aldrich, cat. A9165), 10 mM nicotinamide (Sigma-Aldrich, cat. N0636), 1X B-27 supplement (Thermo Fisher Scientific, cat. 17504044), 1X N-2 supplement (Thermo Fisher Scientific, cat. 17502048), 10 microM Y-27632 dihydrochloride (Tocris Bioscience, cat. 1254), and 50 ng/mL human EGF recombinant protein (Thermo Fisher Scientific, cat. PHG0311). The 485176-168-R4-J1-PDC line was cultured in Panc media, which includes all 6C/Colon 1B media components plus 100 ng/mL human FGF-10 (Thermo Fisher Scientific, cat. 100-26), 500 nM SB-431542 (Selleckchem, cat. S1067), and gastrin (Tocris, cat. 3006).
[…]

[1] = curve of first compound, second compound 0.0316 µM
[2] = curve of first compound, second compound 0.1 µM
[3] = curve of first compound, second compound 0.316 µM
[4] = curve of first compound, second compound 1 µM
[5] = curve of first compound, second compound 3.16 µM
[6] = curve of first compound, second compound 10 µM
[7] = second compound 0.0316 µM, first compound 0.0316 µM
[8] = second compound 0.0316 µM, first compound 0.1 µM
[9] = second compound 0.0316 µM, first compound 0.316 µM
[10] = second compound 0.0316 µM, first compound 1 µM
[11] = second compound 0.0316 µM, first compound 3.16 µM
[12] = second compound 0.0316 µM, first compound 10 µM
[13] = second compound 0.1 µM, first compound 0.0316 µM
[14] = second compound 0.1 µM, first compound 0.1 µM
[15] = second compound 0.1 µM, first compound 0.316 µM
[16] = second compound 0.1 µM, first compound 1 µM
[17] = second compound 0.1 µM, first compound 3.16 µM
[18] = second compound 0.1 µM, first compound 10 µM
[19] = second compound 0.316 µM, first compound 0.0316 µM
[20] = second compound 0.316 µM, first compound 0.1 µM
[21] = second compound 0.316 µM, first compound 0.316 µM
[22] = second compound 0.316 µM, first compound 1 µM
[23] = second compound 0.316 µM, first compound 3.16 µM
[24] = second compound 0.316 µM, first compound 10 µM
[25] = second compound 1 µM, first compound 0.0316 µM
[26] = second compound 1 µM, first compound 0.1 µM
[27] = second compound 1 µM, first compound 0.316 µM
[28] = second compound 1 µM, first compound 1 µM
[29] = second compound 1 µM, first compound 3.16 µM
[30] = second compound 1 µM, first compound 10 µM
[31] = second compound 3.16 µM, first compound 0.0316 µM
[32] = second compound 3.16 µM, first compound 0.1 µM
[33] = second compound 3.16 µM, first compound 0.316 µM
[34] = second compound 3.16 µM, first compound 1 µM
[35] = second compound 3.16 µM, first compound 3.16 µM
[36] = second compound 3.16 µM, first compound 10 µM
[37] = second compound 10 µM, first compound 0.0316 µM
[38] = second compound 10 µM, first compound 0.1 µM
[39] = second compound 10 µM, first compound 0.316 µM
[40] = second compound 10 µM, first compound 1 µM
[41] = second compound 10 µM, first compound 3.16 µM
[42] = second compound 10 µM, first compound 10 µM
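Also: spheroids exposed to the agents for one week before reading.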
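For viability, T/C in this document: percent of vehicle DMSO control viability so 100% = untreated growth.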

IC50 (curve of compound): > 10000 nM
SMILES: C=CC(=O)N1CCN(c2nc(=O)n(-c3c(C)ccnc3C(C)C)c3nc(-c4c(O)cccc4F)c(F)cc23)C(C)C1 (stereo not given)
viability, T/C (compound 0.0316 µM): 89% and 91.5% and 95%
viability, T/C (compound 0.1 µM): 106% and 107% and 112%
viability, T/C (compound 0.316 µM): 102% and 127% and 100%
viability, T/C (compound 1 µM): 155% and 112% (2×)
viability, T/C (compound 3.16 µM): 145% and 124% and 111%
viability, T/C (compound 10 µM): 113% and 108% and 106%

IC50 (curve of compound): 755 nM and 646 nM and 915 nM
SMILES: COc1cccc2c1C(=O)c1c(O)c3c(c(O)c1C2=O)CC(O)(C(=O)CO)CC3OC1CC(N)C(O)C(C)O1 (stereo not given)
viability, T/C (compound 0.0316 µM): 93.1% and 76% and 90.5%
viability, T/C (compound 0.1 µM): 76.3% and 67.8% and 76.2%
viability, T/C (compound 0.316 µM): 78.5% and 73.6% and 72.8%
viability, T/C (compound 1 µM): 41.3% and 36.2% and 49.6%
viability, T/C (compound 3.16 µM): 1.91% and 2.01% and 1.77%
viability, T/C (compound 10 µM): 0.43% and 0.5% and 0.55%

SMILES: O=C(c1cc(Cc2n[nH]c(=O)c3ccccc23)ccc1F)N1CCN(C(=O)C2CC2)CC1 + Cc1[nH]c2ccc(F)cc2c1-c1nc2c3cccnc3c3ncccc3c2[nH]1
IC50 [1]: > 10000 nM
IC50 [2]: > 10000 nM
IC50 [3]: > 10000 nM
IC50 [4]: > 10000 nM
IC50 [5]: < 31.6 nM
IC50 [6]: > 10000 nM
viability, T/C [7]: 110%
viability, T/C [8]: 95.2%
viability, T/C [9]: 92.1%
viability, T/C [10]: 105%
viability, T/C [11]: 96.4%
viability, T/C [12]: 97.5%
viability, T/C [13]: 91.4%
viability, T/C [14]: 107%
viability, T/C [15]: 87.8%
viability, T/C [16]: 88.3%
viability, T/C [17]: 85.8%
viability, T/C [18]: 73.8%
viability, T/C [19]: 72.9%
viability, T/C [20]: 90.7%
viability, T/C [21]: 78%
viability, T/C [22]: 79%
viability, T/C [23]: 68.7%
viability, T/C [24]: 71%
viability, T/C [25]: 56.1%
viability, T/C [26]: 66.6%
viability, T/C [27]: 64.3%
viability, T/C [28]: 67.1%
viability, T/C [29]: 60.1%
viability, T/C [30]: 58.1%
viability, T/C [31]: 40.8%
viability, T/C [32]: 44.4%
viability, T/C [33]: 38.6%
viability, T/C [34]: 42%
viability, T/C [35]: 50.8%
viability, T/C [36]: 45.4%
viability, T/C [37]: 70.9%
viability, T/C [38]: 57.8%
viability, T/C [39]: 65.9%
viability, T/C [40]: 61.5%
viability, T/C [41]: 49.6%
viability, T/C [42]: 61.6%

IC50 (curve of compound): 101 nM and 134 nM and 154 nM
SMILES: CC1COCCN1c1cc(C2(O)CC3CCC(C2)O3)c2cnn(-c3ccn[nH]3)c2n1 (stereo not given)
viability, T/C (compound 0.0316 µM): 68.6% and 72.1% and 69.9%
viability, T/C (compound 0.1 µM): 40% and 42.8% and 48.9%
viability, T/C (compound 0.316 µM): 41.1% and 40% and 42.5%
viability, T/C (compound 1 µM): 33% and 40.1% and 34.1%
viability, T/C (compound 3.16 µM): 22.5% and 33.5% and 32.9%
viability, T/C (compound 10 µM): 11.1% and 15% and 15.1%

SMILES: CC1COCCN1c1cc(C2(S(C)(=N)=O)CC2)nc(-c2ccnc3[nH]ccc23)n1 (stereo not given) + Cc1[nH]c2ccc(F)cc2c1-c1nc2c3cccnc3c3ncccc3c2[nH]1
IC50 [1]: > 10000 nM
IC50 [2]: 5230 nM
IC50 [3]: 914 nM
IC50 [4]: 551 nM
IC50 [5]: < 31.6 nM
IC50 [6]: 629 nM
viability, T/C [7]: 114%
viability, T/C [8]: 108%
viability, T/C [9]: 89.2%
viability, T/C [10]: 69.9%
viability, T/C [11]: 73%
viability, T/C [12]: 50%
viability, T/C [13]: 106%
viability, T/C [14]: 100%
viability, T/C [15]: 97.7%
viability, T/C [16]: 87.1%
viability, T/C [17]: 56.9%
viability, T/C [18]: 40.5%
viability, T/C [19]: 97.3%
viability, T/C [20]: 94.4%
viability, T/C [21]: 69%
viability, T/C [22]: 47%
viability, T/C [23]: 52.9%
viability, T/C [24]: 43.3%
viability, T/C [25]: 58%
viability, T/C [26]: 59.7%
viability, T/C [27]: 58.9%
viability, T/C [28]: 40.5%
viability, T/C [29]: 45.1%
viability, T/C [30]: 34.5%
viability, T/C [31]: 36.9%
viability, T/C [32]: 42.2%
viability, T/C [33]: 39.2%
viability, T/C [34]: 36.8%
viability, T/C [35]: 39.7%
viability, T/C [36]: 35.6%
viability, T/C [37]: 60.3%
viability, T/C [38]: 53.8%
viability, T/C [39]: 59.4%
viability, T/C [40]: 43.1%
viability, T/C [41]: 44.6%
viability, T/C [42]: 41.5%
